We go through three molecules from US6905714B2, “Method for modulating steroidogenic activity” (priority 2000, dated 2005).

One series addresses T1, glucocorticoid receptor (Homo sapiens, UniProt P04150).
T1 construct: expressed in transfected cells
T1 sequence (P04150 1-777): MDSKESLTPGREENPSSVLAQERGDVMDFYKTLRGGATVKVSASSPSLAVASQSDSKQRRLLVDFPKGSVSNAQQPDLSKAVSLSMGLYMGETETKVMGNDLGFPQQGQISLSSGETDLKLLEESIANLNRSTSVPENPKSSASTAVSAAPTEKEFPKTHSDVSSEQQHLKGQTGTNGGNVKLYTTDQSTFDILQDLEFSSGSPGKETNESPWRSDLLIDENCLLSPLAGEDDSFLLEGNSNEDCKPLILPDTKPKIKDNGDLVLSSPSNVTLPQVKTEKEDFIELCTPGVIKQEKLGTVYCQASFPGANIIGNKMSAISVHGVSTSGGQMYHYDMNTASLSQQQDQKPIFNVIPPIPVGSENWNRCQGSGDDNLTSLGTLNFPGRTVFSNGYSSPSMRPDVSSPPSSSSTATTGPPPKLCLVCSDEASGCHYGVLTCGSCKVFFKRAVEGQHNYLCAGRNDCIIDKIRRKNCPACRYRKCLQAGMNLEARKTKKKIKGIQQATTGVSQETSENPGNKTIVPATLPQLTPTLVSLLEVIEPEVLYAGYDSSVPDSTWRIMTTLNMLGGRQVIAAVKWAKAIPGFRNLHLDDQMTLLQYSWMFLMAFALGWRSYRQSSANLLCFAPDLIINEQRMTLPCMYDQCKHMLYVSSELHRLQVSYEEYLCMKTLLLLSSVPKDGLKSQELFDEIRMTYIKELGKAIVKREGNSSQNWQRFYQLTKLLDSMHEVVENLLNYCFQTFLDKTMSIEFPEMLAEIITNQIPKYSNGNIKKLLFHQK
As to the kind of experiment: Glucocorticoid receptor transactivation, luciferase reporter in HeLa cells. In kind it is cell-based. A general note: Reporter assays use an easily measured gene product as a stand-in for the process of interest.

Another series addresses T2, androgen receptor (Homo sapiens, UniProt P10275).
T2 sequence (P10275 1-920): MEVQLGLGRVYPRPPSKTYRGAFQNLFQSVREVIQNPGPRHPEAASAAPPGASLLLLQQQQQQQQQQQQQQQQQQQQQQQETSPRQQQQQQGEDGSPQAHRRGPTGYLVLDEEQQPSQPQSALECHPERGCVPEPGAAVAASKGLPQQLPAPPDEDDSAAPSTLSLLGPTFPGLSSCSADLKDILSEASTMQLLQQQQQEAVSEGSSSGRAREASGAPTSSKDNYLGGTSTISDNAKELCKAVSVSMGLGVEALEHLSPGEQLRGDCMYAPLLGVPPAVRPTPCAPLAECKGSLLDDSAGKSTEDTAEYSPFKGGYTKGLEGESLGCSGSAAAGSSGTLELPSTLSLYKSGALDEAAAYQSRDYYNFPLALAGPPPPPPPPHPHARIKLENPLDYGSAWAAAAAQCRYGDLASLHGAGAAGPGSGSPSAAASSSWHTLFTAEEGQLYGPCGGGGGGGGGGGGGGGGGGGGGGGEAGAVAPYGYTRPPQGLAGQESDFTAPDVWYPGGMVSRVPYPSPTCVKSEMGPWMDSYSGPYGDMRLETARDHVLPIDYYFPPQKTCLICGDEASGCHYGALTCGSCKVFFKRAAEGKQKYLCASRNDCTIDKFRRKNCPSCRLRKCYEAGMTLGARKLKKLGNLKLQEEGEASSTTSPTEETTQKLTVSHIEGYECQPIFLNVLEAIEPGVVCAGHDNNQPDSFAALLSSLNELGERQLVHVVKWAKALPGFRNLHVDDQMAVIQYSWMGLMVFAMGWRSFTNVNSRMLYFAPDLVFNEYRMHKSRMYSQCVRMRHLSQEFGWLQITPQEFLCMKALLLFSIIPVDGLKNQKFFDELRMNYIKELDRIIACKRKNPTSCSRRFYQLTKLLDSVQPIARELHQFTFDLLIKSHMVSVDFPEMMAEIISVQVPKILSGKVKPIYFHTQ
Conditions: 0.3 to 10 nM; 3 nM tritiated testosterone.

A further series deals with T3, progesterone receptor (Homo sapiens, UniProt P06401).
T3 sequence (P06401 1-933): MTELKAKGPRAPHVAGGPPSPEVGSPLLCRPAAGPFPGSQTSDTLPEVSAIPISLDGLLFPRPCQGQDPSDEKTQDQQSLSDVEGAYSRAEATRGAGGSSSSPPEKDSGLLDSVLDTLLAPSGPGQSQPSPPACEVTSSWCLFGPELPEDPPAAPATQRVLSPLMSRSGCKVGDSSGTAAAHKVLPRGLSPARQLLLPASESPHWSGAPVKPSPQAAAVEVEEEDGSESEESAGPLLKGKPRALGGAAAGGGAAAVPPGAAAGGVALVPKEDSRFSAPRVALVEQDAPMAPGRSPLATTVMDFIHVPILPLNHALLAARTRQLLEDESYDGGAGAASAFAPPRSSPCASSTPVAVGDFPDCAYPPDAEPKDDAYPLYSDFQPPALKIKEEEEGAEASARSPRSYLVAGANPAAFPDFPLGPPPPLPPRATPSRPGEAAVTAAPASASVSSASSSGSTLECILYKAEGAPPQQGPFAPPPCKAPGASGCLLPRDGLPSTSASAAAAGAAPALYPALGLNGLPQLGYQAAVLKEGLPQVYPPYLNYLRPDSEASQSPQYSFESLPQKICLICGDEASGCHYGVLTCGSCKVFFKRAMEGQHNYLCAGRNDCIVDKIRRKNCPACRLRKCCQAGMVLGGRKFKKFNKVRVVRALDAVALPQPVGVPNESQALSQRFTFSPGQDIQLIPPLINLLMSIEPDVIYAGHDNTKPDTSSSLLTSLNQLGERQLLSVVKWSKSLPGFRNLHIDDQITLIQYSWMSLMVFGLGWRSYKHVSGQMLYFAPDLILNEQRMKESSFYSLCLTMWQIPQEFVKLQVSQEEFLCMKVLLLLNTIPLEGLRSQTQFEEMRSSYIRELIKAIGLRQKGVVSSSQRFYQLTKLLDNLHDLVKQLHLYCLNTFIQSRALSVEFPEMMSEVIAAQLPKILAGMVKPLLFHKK
As to the kind of experiment: Progesterone receptor transactivation, luciferase reporter in HeLa cells.

For series [1], the system named is ventral prostate gland, immature Wistar rats. Nature of the series: Growth of the ventral prostate gland in immature Wistar rats. In kind it is in vivo, rat. Conditions: testosterone intramuscularly, alone (FIG. 6a). As for the experimental part:
The growth of the ventral prostate gland, an androgen-dependent tissue, in immature Wistar rats was measured.
To determine the androgenic effect of an ethanolic EU extract in animals, the growth of the ventral prostate gland, an androgen-dependent tissue, in immature Wistar rats was measured. […] In this model, exogenous androgen administration can be directly correlated with the growth of the ventral prostate.

Entries after “also recorded” stand apart in the source; their conditions may differ.

Method for glucocorticoid receptor: (§1) Thus, HeLa cells were cotransfected with an androgen receptor (AR) expression plasmid, a plasmid for expression of β-galactosidase (β-gal) and a luciferase reporter plasmid, ARE-Tata-luc (Jenster 1997) and then incubated with ethanol as a solvent control, or with the herbal extracts indicated in Table 1. Herbal extracts were added to the cells six hours after transfection. Thirty-six hours later, the cells were harvested and cell extracts assayed for luciferase activity.
(§2) The DNA mix contained an AR expression vector, a reporter gene vector (ARE-Tata-Luc) and a βGal vectors, the last for purposes of normalizing results for the transfection efficiency. The AR expression vector comprises a cDNA encoding AR and expressed from a SV40 promoter and a rabbit β-globin polyadenylation signal, all cloned in a pBR328 vector. The β-gal vector comprises a bacterial lacZ gene under control of an SV40 promoter-enhancer. The DNA mix was preincubated for 45 min at room temperature with lipofectamine (Promega, Madison, Wis.) in a 400 μl serum-free medium. […] Cell lysates (100 μl) were added to 20 μl of luciferase substrate and luciferase activity measured with a luminometer. Transfection efficiency was assessed by βGal activity and luciferase activity normalized to the protein content of the cell lysates. Total protein in the supernatant was quantified with bovine serum albumin as the standard.
Method for progesterone receptor: as §1, §2

On to `C[C@]12CCC(=O)C=C1CC[C@@H]1[C@@H]2[C@@H](O)C[C@@]2(C)[C@H]1CC[C@]2(O)C(=O)CO` [Cortisol, cortisol], for which the “Ratio of Luc activity as percentage (%) of 1 nM ligand” value at glucocorticoid receptor (substance alone) is on record as 100%. The “Luc activity (fold induction)” value on glucocorticoid receptor (substance alone (extract, or 1 nM cortisol)) is 194 fold. Also, the “displacement of tritiated testosterone” value on androgen receptor was “does not displace tritiated testosterone”.
Turning to `CC(=O)[C@H]1CC[C@H]2[C@@H]3CCC4=CC(=O)CC[C@]4(C)[C@H]3CC[C@]12C` [Progesterone, progesterone], the “Ratio of Luc activity as percentage (%) of 1 nM ligand” value on progesterone receptor (substance alone) is given as 100%. Besides, the “Luc activity (fold induction)” value on progesterone receptor (substance alone (extract, or 1 nM progesterone)) came to 67 fold.
Regarding `C[C@]12CC[C@H]3[C@@H](CCC4=CC(=O)CC[C@@]43C)[C@@H]1CC[C@@H]2O` [testosterone], in series [1], the “prostate weight (per unit body weight)” value was “dose-dependent increase in prostate weight; also recorded: dose-dependent increments in prostatic weight”.
